Tested on: AMPK and ACC phosphorylation on L6 myotubes
Experiment: AMPK and ACC phosphorylation on L6 myotubes (western blot)
Type: cell-based
Conditions: L6 muscle cells treated for 1 hour, FIGS. 2A and 2B
Experimental: (§1) 2. Experimental principle: Small molecule compounds allosterically activate AMPK and cause the phosphorylation of substrate acetyl-CoA carboxylase (ACC) at Ser-79-site.
(§2) 3. Detection reagents: AMPK, phospho-AMPK (T172), phospho-ACC (S79), and total ACC antibodies were purchased from Cell Signaling Technology.
(§3) 1) The cells were exchanged into serum-free medium and starved for two hours, and compounds were added to treat (in 0.4% DMSO) for 1 hour. The cells to be harvested were washed with PBS once. 1×SDS gel loading buffer (50 mM Tris (pH6.8), 100 mM DTT, 2% SDS, 10% glycerol, 0.1% bromophenol blue) was added to lysis cells (24 well plates, […] per well).
(§4) 2) The sample was heated at 100° C. for 10 minutes and then centrifuged at 12000 g for 10 minutes. The supernatant was subjected to SDS-PAGE electrophoresis under following condition: spacer gel: 70 volts, and separation gel: 90 volts.
(§5) 3) After electrophoresis, the proteins were transferred onto nitrocellulose membrane using Biorad wet electrical transduction system. After the desired band was cut, the strips were blocked in a blocking solution (TBST, containing 5% BSA) for 1 hour at room temperature. The strips were place in a solution containing the primary antibody and incubated overnight at 4° C.
(§6) 4) On next day, the target band was placed in TBST and washed at room temperature for 10 minutes (3 times). […]

| Structure (SMILES) | AMPK activation at the cellular level | downstream phosphorylation levels of ACC |
| --- | --- | --- |
| COc1ccc(CNC(=O)c2ccc(CN3C=C4C(=O)N(c5ccc(F)c(C(F)(F)F)c5)N=C4CC3)cc2)cc1OC [ZM-1] | dose-dependently activated | increased accordingly |

Tested on: AMPK and ACC phosphorylation on HepG2 cells
Experiment: AMPK and ACC phosphorylation on HepG2 cells (western blot)
Type: cell-based
Conditions: different concentrations, FIG. 3
Experimental: as §1, §2, §3, §4, §5, §6

| Structure (SMILES) | AMPK activation | phosphorylation of ACC |
| --- | --- | --- |
| COc1ccc(CNC(=O)c2ccc(CN3C=C4C(=O)N(c5ccc(F)c(C(F)(F)F)c5)N=C4CC3)cc2)cc1OC [ZM-1] | activate AMPK | upregulate phosphorylation of ACC in a concentration or gradient dependent manner |

Tested on: AMPK and ACC phosphorylation on SD rat primary hepatocytes
Experiment: AMPK and ACC phosphorylation on SD rat primary hepatocytes (western blot)
Type: cell-based
Conditions: primary hepatocytes of SD rats, different concentrations, FIG. 4
Experimental: as §1, §2, §3, §4, §5, §6

| Structure (SMILES) | AMPK activation | phosphorylation of ACC |
| --- | --- | --- |
| COc1ccc(CNC(=O)c2ccc(CN3C=C4C(=O)N(c5ccc(F)c(C(F)(F)F)c5)N=C4CC3)cc2)cc1OC [ZM-1] | activate AMPK | upregulate phosphorylation of ACC in a concentration or gradient dependent manner |

Target: T1, human AMPK (α2β1γ1) (Homo sapiens, UniProt P54619+P54646+Q9Y478)
T1 construct: made in house; host or cells: E. coli
Experiment: AMPK (α2β1γ1) activation at molecular level, HTRF KinEASE-STK S1 kinase assay
Type: biochemical
Conditions: Table 1 and FIG. 1
Experimental: 1. Purpose of the experiment: To screen small molecule compounds that can activate AMPK (α2β1γ1).
2. Principle of the experiment: The peptide as substrate contains sites which can be AMPK phosphorylated. One terminal of the peptide is linked with biotin in the reaction system (containing 2 mM MgCl2, 400 μM DTT, 160 nM substrate peptide, 4 μM ATP and 1.6 nM AMPK). In the biotinylated terminal, biotin can link with streptavidin-XL665 (acceptor) so as to complete the labeling. After 45 minute of phosphorylation reaction, the phosphorylated substrate (i.e., product) can bind to an antibody (labeled Donor) which recognizes the phosphorylating site, and the biotin on the other terminal can linked to streptavidin-XL665 (acceptor) so that the resulting FRET signal can be detected with PE Evision. The final AMPK activity is expressed as a ratio of the 665 nm wavelength reading to the 615 nm wavelength reading (665 nm/615 nm).
3. Detection reagent: The human AMPK (α2β1γ1) protein was obtained by expression using an E. coli expression system and purification. HTRF KinEASE-STK S1 kit (purchased from Cisbio's); ATP (purchased from Sigma).
1) 200 nM AMPK (α2β1γ1) protein was incubated with 200 nM CaMKKβ at 30° C. for 4 hours in water bath to completely phosphorylate AMPK.
2) The enzyme reaction system (2 mM MgCl2, […], 160 nM substrate peptide, 4 µM ATP, and 1.6 nM AMPK) was prepared by using a white shallow plate purchased from PE. The reaction was reacted at 30° C. for 45 minutes. Phosphorylated recognizing peptides of the antibody and the XL665 Detection buffer were added and the mixture was incubated at room temperature for 3 hours before the signals were detected.

T1 sequence (P54646 whole entry): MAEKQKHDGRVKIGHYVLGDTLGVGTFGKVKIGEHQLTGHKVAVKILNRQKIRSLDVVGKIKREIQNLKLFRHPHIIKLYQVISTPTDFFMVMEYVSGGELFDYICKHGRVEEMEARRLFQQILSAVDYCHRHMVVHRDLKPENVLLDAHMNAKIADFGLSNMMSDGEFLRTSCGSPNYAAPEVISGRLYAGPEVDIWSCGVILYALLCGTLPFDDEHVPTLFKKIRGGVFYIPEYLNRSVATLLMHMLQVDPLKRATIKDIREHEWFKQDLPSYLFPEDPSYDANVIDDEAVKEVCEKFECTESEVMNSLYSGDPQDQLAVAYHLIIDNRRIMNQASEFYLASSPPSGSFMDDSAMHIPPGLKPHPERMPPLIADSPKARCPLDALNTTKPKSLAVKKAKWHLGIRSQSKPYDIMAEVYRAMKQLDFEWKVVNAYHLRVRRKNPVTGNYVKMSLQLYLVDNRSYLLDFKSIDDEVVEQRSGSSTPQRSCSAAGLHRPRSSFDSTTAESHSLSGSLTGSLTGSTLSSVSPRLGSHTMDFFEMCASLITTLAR
T1 sequence (Q9Y478 whole entry): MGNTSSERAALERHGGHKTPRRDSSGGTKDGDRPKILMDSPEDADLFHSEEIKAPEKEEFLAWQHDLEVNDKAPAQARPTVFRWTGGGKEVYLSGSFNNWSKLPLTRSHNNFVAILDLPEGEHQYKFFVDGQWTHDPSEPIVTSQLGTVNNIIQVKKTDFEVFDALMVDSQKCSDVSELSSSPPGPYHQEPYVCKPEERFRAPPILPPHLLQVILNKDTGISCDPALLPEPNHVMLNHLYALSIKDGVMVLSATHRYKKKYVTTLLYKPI
T1 sequence (P54619 whole entry): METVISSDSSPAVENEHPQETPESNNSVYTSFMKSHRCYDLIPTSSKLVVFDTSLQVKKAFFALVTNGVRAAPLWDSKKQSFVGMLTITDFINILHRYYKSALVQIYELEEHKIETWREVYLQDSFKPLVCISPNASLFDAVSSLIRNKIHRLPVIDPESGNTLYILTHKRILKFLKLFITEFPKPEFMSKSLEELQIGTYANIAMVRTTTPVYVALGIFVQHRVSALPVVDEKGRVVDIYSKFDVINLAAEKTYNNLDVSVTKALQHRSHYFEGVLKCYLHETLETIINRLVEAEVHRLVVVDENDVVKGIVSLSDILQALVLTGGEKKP

| Structure (SMILES) | allosteric activation of AMPK in molecular level |
| --- | --- |
| COc1ccc(CNC(=O)c2ccc(CN3C=C4C(=O)N(c5ccc(F)c(C(F)(F)F)c5)N=C4CC3)cc2)cc1OC [ZM-1] | significantly and allosterically activate AMPK |

Same assay, conditions: activation of human AMPK (α2β1γ1), 4 μM ATP, 45 min at 30° C.

| Structure (SMILES) | Activation ratio (Fold) | EC50 |
| --- | --- | --- |
| COc1ccc(CNC(=O)c2ccc(CN3C=C4C(=O)N(c5ccc(F)c(C(F)(F)F)c5)N=C4CC3)c(C)c2)cc1OC [ZM-19] | 2.6 Fold | 5.6 µM |
| O=C(NCc1cccc2c1OCO2)c1ccc(CN2C=C3C(=O)N(c4ccc(F)c(C(F)(F)F)c4)N=C3CC2)cc1 [ZM-13] | 2.5 Fold | 3.3 µM |
| CCOc1cc(CNC(=O)c2ccc(CN3CCc4c(c(=O)n(-c5ccc(F)c(C(F)(F)F)c5)n4C)C3)cc2)ccc1OC [ZM-26] | 2.3 Fold | 3 µM |
| COc1cc(CNC(=O)c2ccc(CN3C=C4C(=O)N(c5ccc(F)c(C(F)(F)F)c5)N=C4CC3)cc2)ccc1OC(F)F [ZM-27] | 2.3 Fold | 5 µM |
| CCNC(=O)c1ccc(CN2C=C3C(=O)N(c4ccc(F)c(C(F)(F)F)c4)N=C3CC2)cc1 [ZM-10] | 2.7 Fold | 10 µM |
| [2H]C([2H])([2H])Oc1ccc(CNC(=O)c2ccc(CN3C=C4C(=O)N(c5ccc(F)c(C(F)(F)F)c5)N=C4CC3)cc2)cc1OC [ZM-34] | 2.1 Fold | 6.3 µM |
| COc1ccc(CNC(=O)c2ccc(CN3C=C4C(=O)N(c5ccc(S(N)(=O)=O)cc5)N=C4CC3)cc2)cc1OC [ZM-17] | 2.1 Fold | 9.5 µM |
| O=C(NCC1CCCCC1)c1ccc(CN2C=C3C(=O)N(c4ccc(F)c(C(F)(F)F)c4)N=C3CC2)cc1 [ZM-15] | 2.2 Fold | 5.8 µM |
| COc1cc(F)c(CNC(=O)c2ccc(CN3C=C4C(=O)N(c5ccc(F)c(C(F)(F)F)c5)N=C4CC3)cc2)cc1OC [ZM-20] | 2.8 Fold | 4.4 µM |
| COc1cc(CNC(=O)c2ccc(CN3CCc4c(c(=O)n(-c5ccc(F)c(C(F)(F)F)c5)n4C)C3)cc2)ccc1OC(C)C [ZM-25] | 3.1 Fold | 2.5 µM |
| COc1ccc(CNC(=O)c2ccc(CN3CCC4=NN(c5ccc(F)c(C(F)(F)F)c5)C(=O)C4(C)C3)cc2)cc1OC (stereo not drawn) [ZM-33] | 2.7 Fold | 7.8 µM |
| COc1ccc(CNC(=O)c2ccc(CN3C=C4C(=O)N(c5ccc(F)c(C(F)(F)F)c5)N=C4CC3)cc2)cc1OC [ZM-1] | 3.3 Fold | 2.1 µM |
| COc1ccc(CNC(=O)c2ccc(CN3CCc4c(c(=O)n(-c5ccc(F)c(C(F)(F)F)c5)n4C)C3)cc2)cc1OC [ZM-5] | 3.6 Fold | 3.3 µM |
| O=C(NCc1ccc(OC(F)F)c(OC(F)F)c1)c1ccc(CN2C=C3C(=O)N(c4ccc(F)c(C(F)(F)F)c4)N=C3CC2)cc1 [ZM-31] | 3.1 Fold | 5.4 µM |
| COC(=O)c1cccc(CN2CCC3=NN(c4ccc(F)c(C(F)(F)F)c4)C(=O)C3C2)c1 (stereo not drawn) [ZM-4] | 3.2 Fold | 8.4 µM |
| Nc1ncnc2c1ncn2[C@@H]1O[C@H](COP(=O)(O)O)[C@@H](O)[C@H]1O [AMP, reference compound] | 2.6 Fold | 0.3 µM |
| COc1ccc(CNC(=O)c2ccc(CN3C=C4C(=O)N(c5nc6ccccc6s5)N=C4CC3)cc2)cc1OC [ZM-18] | 2.8 Fold | 6.3 µM |
| O=C(NCc1ccccc1)c1ccc(CN2C=C3C(=O)N(c4ccc(F)c(C(F)(F)F)c4)N=C3CC2)cc1 [ZM-8] | 3.0 Fold | 8.6 µM |
| COc1ccc(CN(C)C(=O)c2ccc(CN3C=C4C(=O)N(c5ccc(F)c(C(F)(F)F)c5)N=C4CC3)cc2)cc1OC [ZM-6] | 3.0 Fold | 1.1 µM |
| COc1cc(CNC(=O)c2ccc(CN3C=C4C(=O)N(c5ccc(F)c(C(F)(F)F)c5)N=C4CC3)cc2)ccc1O [ZM-30] | 2.7 Fold | 8.6 µM |

The remaining lines, values ahead:

| Activation ratio (Fold) | EC50 | Structure (SMILES) |
| --- | --- | --- |
| 3.0 Fold | 5.4 µM | CCOc1ccc(CNC(=O)c2ccc(CN3C=C4C(=O)N(c5ccc(F)c(C(F)(F)F)c5)N=C4CC3)cc2)cc1OC [ZM-23] |
| 3.2 Fold | 5.6 µM | COc1ccc(CNC(=O)c2ccc(CN3C=C4C(=O)N(c5cccc(C(F)(F)F)c5)N=C4CC3)cc2)cc1OC [ZM-16] |
| 2.7 Fold | 4.6 µM | COc1ccc(CNC(=O)c2cccc(CN3C=C4C(=O)N(c5ccc(F)c(C(F)(F)F)c5)N=C4CC3)c2)cc1OC [ZM-7] |
| – | 5.8 µM | COC(=O)c1ccc(CN2C=C3C(=O)N(c4ccc(F)c(C(F)(F)F)c4)N=C3CC2)cc1 [ZM-2, Methyl 4-((2-(4-fluoro-3-(trifluoromethyl)phenyl)-3-oxo-6,7-dihydro-2H-pyrazolo[4,3-c]pyridin-5(3H)-yl)methyl)benzoic acid] |
| – | 9.8 µM | COC(=O)c1ccc(CN2CCC3=NN(c4ccc(F)c(C(F)(F)F)c4)C(=O)C3C2)cc1 (stereo not drawn) [ZM-3, Methyl 4-((2-(4-fluoro-3-(trifluoromethyl)phenyl)-3-oxo-3a,4,6,7-tetrahydro-2H-pyrazolo[4,3-c]pyridin-5(3H)-yl)methyl)benzoic acid] |
| 2.6 Fold | 3.2 µM | COc1ccc(C2(NC(=O)c3ccc(CN4C=C5C(=O)N(c6ccc(F)c(C(F)(F)F)c6)N=C5CC4)cc3)CC2)cc1OC [ZM-28] |
| 2.5 Fold | 9.7 µM | C[C@@H](NC(=O)c1ccc(CN2C=C3C(=O)N(c4ccc(F)c(C(F)(F)F)c4)N=C3CC2)cc1)c1ccccc1 [ZM-14] |
| 2.9 Fold | 6.7 µM | CCOc1cc(CNC(=O)c2ccc(CN3C=C4C(=O)N(c5ccc(F)c(C(F)(F)F)c5)N=C4CC3)cc2)ccc1OC [ZM-22] |
| 2.8 Fold | 5.3 µM | COc1cccc(CNC(=O)c2ccc(CN3C=C4C(=O)N(c5ccc(F)c(C(F)(F)F)c5)N=C4CC3)cc2)c1 [ZM-9] |
| 2.2 Fold | 4 µM | COc1ccc(C(C)(C)NC(=O)c2ccc(CN3C=C4C(=O)N(c5ccc(F)c(C(F)(F)F)c5)N=C4CC3)cc2)cc1OC [ZM-21] |
| 2.4 Fold | 4.1 µM | COc1ccc(CNC(=O)c2ccc(CN3C=C4C(=O)N(c5ccc(F)c(C(F)(F)F)c5)N=C4CC3)cc2)cc1OC(F)F [ZM-32] |
| 3.0 Fold | 5 µM | O=C(NCc1ccc2c(c1)OCO2)c1ccc(CN2C=C3C(=O)N(c4ccc(F)c(C(F)(F)F)c4)N=C3CC2)cc1 [ZM-12] |
| 2.9 Fold | 9.7 µM | COc1cc(CNC(=O)c2ccc(CN3C=C4C(=O)N(c5ccc(F)c(C(F)(F)F)c5)N=C4CC3)cc2)ccc1OC(C)C [ZM-29] |
| 3.5 Fold | 7.5 µM | COc1cc(CNC(=O)c2ccc(CN3C=C4C(=O)N(c5ccc(F)c(C(F)(F)F)c5)N=C4CC3)cc2)cc(OC)c1OC [ZM-11] |
| 2.8 Fold | 2.5 µM | CCOc1ccc(CNC(=O)c2ccc(CN3CCc4c(c(=O)n(-c5ccc(F)c(C(F)(F)F)c5)n4C)C3)cc2)cc1OC [ZM-24] |
